Measured values published in US7495127B2, “Potassium channel opener” (Mitsubishi Tanabe Pharma Corporation, priority 2001, dated 2009).

What was measured:
[1] = target: T1, BKαβ1 (Rattus norvegicus, UniProt Q62976); assay: Whole-cell current recording (whole-cell patch clamp), HEK293 constantly expressing rat BKα+β1; format: cell-based; details: pCa 6.5, depolarization −60 mV to +10 mV
T1 construct: expressed in transfected cells; host or cells: HEK293
Description: According to the whole-cell patch clamp technique, whole-cell currents were recorded on HEK293 cell, in which rat BKα+β1 subunits were constantly expressed. All the experiments were carried out at 22-24° C.
Pipette solution (mM) 140 KCl, 4 MgCl2, 5 ATP, 10 HEPES, 5 EGTA (the pCa was adjusted to 6.5 by adding a suitable amount of CaCl2 to stabilize the pCa). The pH was adjusted to 7.2 with KOH.
Extracellular fluid (mM) 137 NaCl, 5.9 KCl, 2.2 CaCl2, 1.2 MgCl2, 14 Glucose, 10 HEPES. The pH was adjusted to 7.4 with NaOH.
(§1) Since the test compounds were highly aliphatic, and hard to dissolve in water, they were dissolved by DMSO and preserved as 30 mM stock solutions. On administration, final concentration in the DMSO solutions were made at most 0.03%. Incidentally, DMSO was confirmed not to have any influence on BK currents, when its concentration is 0.3% or less.
The whole-cell currents were recorded with the cells in which BK(α+β1) channels were constantly expressed, by the whole-cell patch clamp technique. The Ca^2+ concentration in the intracellular fluid was fixed at pCa 6.5 with Ca^2+-EGTA buffer. The pulse depolarizing from the resting potential −60 mV to +10 mV, was added for 150 mseconds, and the elicited currents were observed. By the depolarizing stimulus, moderately activated outward currents were observed, which are characteristic of BK(α+β1) channel (control in FIG. 4B). After establishing the whole cell, the recording was started at a point where stable current measurements were obtained for 20 minutes. […] After that, by washout, the current went back almost to the level prior to application of the test compounds (FIG. 4A). As a result of a statistical analysis based on the recordings of the 4 examples, the currents were activated by 1.90±0.21 times at concentration of 100 nM, 2.54±0.14 times at 300 nM, and 6.37±0.91 times at 1 μm, by this activating effect.

[2] = target: T1, BKαβ1; assay: Single-channel recording (inside-out patch clamp), HEK293 constantly expressing rat BKα+β1; format: cell-based; details: pCa 7.0, +40 mV
Description: According to the inside-out patch clamp technique, a single channel current was recorded on HEK293, in which rat BKα+β1 subunits were constantly expressed. All the experiments were carried out at 22-24° C.
Intracellular fluid (mM) 140 KCl, 1.2 MgCl2, 14 Glucose, 5 EGTA (the pCa was adjusted to 7 by adding a suitable amount of CaCl2 to stabilize the pCa). The pH was adjusted to 7.2 with NaOH.
Extracellular fluid (mM) 140 KCl, 4 MgCl2, 5 ATP, 10 HEPES, 0.05 EGTA. The pH was adjusted to 7.2 with KOH.
as §1
In order to further confirm this point, a single channel current recording was carried out. The single channel current was recorded with respect to the cells in which BK(α+β1) channels were constantly expressed, by the inside-out patch clamp technique. The intracellular fluid (the fluid contacting the inner side of the cell membrane) was fixed at pCa 7.0. […] From these histograms, channel opening probability was calculated to show relation between the concentration and effect as shown in FIG. 5C.

[3] = target: T1, BKαβ1; assay: BK channel currents in single HEK293 cell expressing BK(α+β1) channels (HEKBKαβ1) under whole-cell voltage clamp; format: cell-based; details: 1 to 10 μm; pCa 6.5
Source text: (§2) Effects of test compounds on BK channel currents were examined in single HEK293 cell expressing BK(α+β1) channels (hereinafter referred to as HEKBKαβ1) under whole-cell voltage clamp. The Ca^2+ concentration in the pipette solution was fixed at pCa 6.5 using a Ca^2+-EGTA buffer. Depolarization from −60 mV to +30 mV induced outward currents in both native HEK293 and HEKBKαβ1, but the current density was much higher in the latter (the current density at the peak: 11.0±1.8 and 95.2±20.9 pA/pF, n=5 and 6, respectively, p<0.05). […] This enhancement of outward current by pimaric acid could be removed completely by washout. Effects of other test compounds were also examined in this manner. The peak amplitude of outward current at +40 mV in the presence of 1, 3, and 10 μm resin acids was measured relative to the value taken just before the application (FIG. 6B).

[4] = system: native HEK293; assay: Outward currents in native HEK293 under whole-cell voltage clamp; format: cell-based, human; details: 1 to 10 μm; pCa 6.5
Source text: as §2

[5] = target: T2, BKα (Rattus norvegicus, UniProt Q62976); assay: Single channel current recording by inside-out patch clamp, BKα expressed on HEK293 cells; format: cell-based
T2 construct: expressed in transfected cells; host or cells: HEK293
Source text: (§3) Calcium-activated potassium channel (hereinafter abbreviated as “BK channel” in Examples) functions with two kinds of proteins α (BKα) and β (BKβ) subunits being arranged in tetramers. BKα consists a main part of a channel and BKβ is an activity regulating factor. […] In accordance with a method of Ahring, et al. (Ahring P. K., et al., FEBS Lett., 415, pp. 67-70, 1997), cDNAs of BKα and BKβ1 genes derived from rat uterus smooth muscle (GenBank accession numbers; U55995 and AF020712) were introduced into HEK293 cells by using calcium phosphate coprecipitation transfection techniques, to constantly overexpress BKα or BKαβ.
(a) Single Channel Current Recording by Inside-Out Patch Clamp Technique
By using Inside-out patch clamp technique, fragments of cell membrane containing the channels were isolated, and by artificially controlling an environment of inside of the cell membrane, opening or closing of a single channel can be directly observed. This is a fully established method not only for functional analysis of the channel, but also for testing quantitative effects of the channel agonists (Hamil, O. P., et al., Pflgers Archiv., 391, pp. 85-100, 1981).
Under this condition, action and effect of pimaric acid for BKα was measured.
In Current Amplitude, 0 pA means a closing state. […] In FIG. 3, a relation between a concentration of pimaric acid and an effect of BK channel activation is shown under this condition. By addition of pimaric acid at concentration of 3 μm or more, a significant increase in channel opening probability was confirmed.

[6] = target: T2, BKα; assay: Membrane current recording by whole cell voltage-clamp, HEK293 cell expressing BKα channels; format: cell-based
Source text: as §3
(b) Membrane Current Recording by Whole Cell Voltage-Clamp Technique
Membrane current of the whole cell by opening of BKα channels was recorded by Whole cell voltage-clamp technique. This technique is frequently employed to analyze the functions shown by the ion channels expressed in numbers on a cell membrane as a whole, and is a well established technique (Hamil, O. P. the above mentioned reference).

[7] = target: T1, BKαβ1; assay: Concentration-dependent block of macroscopic currents by ChTX in HEKBKαβ1, in the absence and presence of pimaric acid; format: cell-based
Source text: The outward currents elicited by depolarization from −60 mV in 10 mV steps were enhanced at potentials positive to −20 mV. The current at +40 mV was increased from 1214±153 to 2527±448 pA (n=5, p<0.05). […] The currents at +40 mV in the presence of 10 μm pimaric acid was reduced from 2527±448 pA to 499±90 pA (p<0.01 versus before the application of and in the presence of 10 μm pimaric acid). […] The normalized data were well fitted with the Hill equation modified for the concentration-response relationship. […] The relationship in the presence of 10 μm pimaric acid was almost identical with that in its absence.

T1 sequence (Q62976 whole entry): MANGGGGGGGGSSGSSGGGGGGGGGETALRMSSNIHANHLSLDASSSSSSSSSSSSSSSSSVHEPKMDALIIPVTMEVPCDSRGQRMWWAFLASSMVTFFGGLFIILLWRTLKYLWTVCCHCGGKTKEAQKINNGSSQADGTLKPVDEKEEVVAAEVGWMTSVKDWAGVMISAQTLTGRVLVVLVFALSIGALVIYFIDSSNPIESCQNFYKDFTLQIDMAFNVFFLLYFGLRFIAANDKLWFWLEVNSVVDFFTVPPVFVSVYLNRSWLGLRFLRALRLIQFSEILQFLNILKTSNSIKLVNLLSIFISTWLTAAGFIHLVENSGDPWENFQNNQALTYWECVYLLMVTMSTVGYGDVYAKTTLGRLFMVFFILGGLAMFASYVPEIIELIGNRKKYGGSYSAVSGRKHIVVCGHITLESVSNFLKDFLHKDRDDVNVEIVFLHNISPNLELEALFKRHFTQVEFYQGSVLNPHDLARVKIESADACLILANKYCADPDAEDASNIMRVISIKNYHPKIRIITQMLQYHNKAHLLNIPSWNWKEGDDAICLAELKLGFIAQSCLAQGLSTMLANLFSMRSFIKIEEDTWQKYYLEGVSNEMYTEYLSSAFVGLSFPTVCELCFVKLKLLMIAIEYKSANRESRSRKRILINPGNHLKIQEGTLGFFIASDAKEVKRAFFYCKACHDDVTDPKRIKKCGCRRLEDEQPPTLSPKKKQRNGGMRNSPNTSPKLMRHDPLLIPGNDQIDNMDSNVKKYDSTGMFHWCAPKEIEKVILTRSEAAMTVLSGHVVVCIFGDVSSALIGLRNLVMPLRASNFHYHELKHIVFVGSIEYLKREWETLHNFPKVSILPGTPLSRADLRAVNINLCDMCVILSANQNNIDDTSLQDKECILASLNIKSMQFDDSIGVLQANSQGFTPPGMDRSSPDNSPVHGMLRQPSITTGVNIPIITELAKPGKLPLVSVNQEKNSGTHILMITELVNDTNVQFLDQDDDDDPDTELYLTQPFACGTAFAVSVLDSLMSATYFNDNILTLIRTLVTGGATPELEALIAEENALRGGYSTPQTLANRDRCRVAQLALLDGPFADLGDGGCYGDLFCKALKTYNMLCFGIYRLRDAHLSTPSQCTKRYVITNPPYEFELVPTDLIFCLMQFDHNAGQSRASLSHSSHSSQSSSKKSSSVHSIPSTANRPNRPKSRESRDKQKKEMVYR
T1 sequence (P97678 whole entry partner): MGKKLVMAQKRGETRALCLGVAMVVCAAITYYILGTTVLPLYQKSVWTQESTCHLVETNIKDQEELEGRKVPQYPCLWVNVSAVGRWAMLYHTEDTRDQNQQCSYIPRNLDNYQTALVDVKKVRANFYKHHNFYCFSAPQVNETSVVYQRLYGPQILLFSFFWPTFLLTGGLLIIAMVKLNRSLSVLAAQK
T2 sequence (Q62976 whole entry): as the sequence (Q62976 whole entry) above

In the case of CC(C)c1c(Cl)cc2c(c1Cl)CC[C@H]1[C@](C)(C(=O)O)CCC[C@]21C [dichlorodehydroabietic acid], the “activation of whole-cell current” value ([1]; 100 nM) was 1.90±0.21 times, the “activation of whole-cell current” value ([1]; 300 nM) was 2.54±0.14 times and the “activation of whole-cell current” value ([1]; 1 μm) was 6.37±0.91 times. The “concentration at which channel activation was observed” value ([2]; applied to inner side of cell membrane) was no less than 100 nM and the “relation between concentration and channel opening probability” value [2] was “concentration-dependent”.

In the case of C=C[C@@]1(C)C=C2CC[C@@H]3[C@](C)(CCC[C@@]3(C)C(=O)O)[C@H]2CC1 [pimaric acid], the “activation of whole-cell current” value ([1]; 1 μm) was 1.92±0.24 times, the “outward currents in HEKBKαβ1” value [3] was “increased outward currents in a dose-dependent fashion” and the “outward currents in native HEK293” value [4] was “did not change”. For the same compound, the “increase of opening probability” value ([5]; 1 μM, Ca of inner side 0.3 μm, patch membrane potential +40 mV) was “increased by three times”, the “time of an opening state (histograms of 30 s current recordings)” value ([5]; 1 μm or 10 μm, +40 mV, Ca 0.1 μM) was “increased time of an opening state” and the “concentration giving a significant increase in channel opening probability” value ([5]; +40 mV, Ca 0.1 μM) was no less than 3 μm. For the same compound, the “channel activity (BKα single channel)” value ([5]; added to solution of inner side of cell membrane at 10 μm or less, +40 mV, Ca 0.1 μM) was “significantly increased”, the “BK channel opening effect relative to NS-1619” value ([5]; comparison with known compound) was no less than 10 times and the “BK channel opening effect relative to maxikdiol described in the reference” value ([5]; comparison with literature value) was “at least three times or more”. The “increase of BKα current” value ([6]; 1 μm added to extracellular fluid, +60 mV) was “about 50%”, the “effect on the binding of ChTX to BK channels” value ([7]; 10 μm pimaric acid) was “does not affect the binding of ChTX to BK channels” and the “outward current at +40 mV” value ([7]; 10 μm pimaric acid, control 1214±153 pA) was 2527±448 pA.

With CC[N+](CC)(CC)CC [tetraethylammonium, reference compound] the “inhibition of the action of pimaric acid on BKα current” value ([6]; 1 mM tetraethylammonium) was “completely inhibited”.

With charybdotoxin [ChTX] the “current amplitude at +40 mV after ChTX” value ([7]; 100 nM ChTX in the absence of pimaric acid, before 1233±226 pA) was 205±46 pA, the “outward current at +40 mV after ChTX” value ([7]; 100 nM ChTX in the presence of 10 μm pimaric acid, before 2527±448 pA) was 499±90 pA and the “C (constant; native K+ currents insensitive to ChTX)” value ([7]; absence of pimaric acid) was 0.077±0.0226. For the same compound, the “nH (Hill coefficient)” value ([7]; absence of pimaric acid) was 0.847±0.034, the “C (constant; native K+ currents insensitive to ChTX)” value ([7]; presence of 10 μm pimaric acid) was 0.0965±0.0388 and the “nH (Hill coefficient)” value ([7]; presence of 10 μm pimaric acid) was 0.982±0.161.
